Assays:
[1] = biological target: T1, human TLR9 (Homo sapiens, UniProt Q9NR96); test: TLR9 inhibition reporter assay (HEK-Blue cells, SEAP reporter, ODN2006 stimulation); assay type: cell-based; details: HEK-Blue cells overexpressing human TLR9, ODN2006 5 nM
T1 construct: host or cells: HEK-Blue cells
T1 sequence (Q9NR96 26-1032): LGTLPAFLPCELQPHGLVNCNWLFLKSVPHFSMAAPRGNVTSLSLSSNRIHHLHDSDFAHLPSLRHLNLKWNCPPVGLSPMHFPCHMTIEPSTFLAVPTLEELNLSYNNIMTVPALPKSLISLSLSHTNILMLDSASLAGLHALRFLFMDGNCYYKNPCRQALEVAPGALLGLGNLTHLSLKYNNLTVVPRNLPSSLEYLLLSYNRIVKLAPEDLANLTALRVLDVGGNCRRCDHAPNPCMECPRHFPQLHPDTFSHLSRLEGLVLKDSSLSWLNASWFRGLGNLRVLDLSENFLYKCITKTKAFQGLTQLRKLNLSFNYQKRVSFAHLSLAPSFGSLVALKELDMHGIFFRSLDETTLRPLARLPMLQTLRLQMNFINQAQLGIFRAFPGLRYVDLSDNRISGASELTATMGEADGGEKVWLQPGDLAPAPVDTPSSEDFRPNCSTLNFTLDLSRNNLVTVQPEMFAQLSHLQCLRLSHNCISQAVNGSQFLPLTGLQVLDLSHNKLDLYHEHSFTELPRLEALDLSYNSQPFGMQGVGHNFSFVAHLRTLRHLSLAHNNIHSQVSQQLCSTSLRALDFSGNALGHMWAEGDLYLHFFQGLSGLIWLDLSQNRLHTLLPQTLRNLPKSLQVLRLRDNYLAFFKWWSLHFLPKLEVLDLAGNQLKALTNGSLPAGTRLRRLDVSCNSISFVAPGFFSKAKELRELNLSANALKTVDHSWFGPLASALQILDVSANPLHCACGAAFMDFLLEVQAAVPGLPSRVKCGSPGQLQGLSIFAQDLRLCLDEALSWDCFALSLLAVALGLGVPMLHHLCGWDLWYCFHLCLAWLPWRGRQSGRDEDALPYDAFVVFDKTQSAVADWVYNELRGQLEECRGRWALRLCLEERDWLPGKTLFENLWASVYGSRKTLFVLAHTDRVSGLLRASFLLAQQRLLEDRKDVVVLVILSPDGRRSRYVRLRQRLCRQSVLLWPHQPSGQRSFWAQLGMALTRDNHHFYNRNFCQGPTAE
How it was run: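 Dose–response from 0.05 nM to 50 μM was run in HEK-Blue human TLR7, TLR8 and TLR9 reporter cells. After 30 min at room temperature with compound, ligand was added (TLR7 gardiquimod 7.5 μM; TLR8 R848 15.9 μM; TLR9 ODN2006 5 nM) and SEAP measured next day, at 22 h.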

[2] = biological target: T2, human TLR7 (Homo sapiens, UniProt Q9NYK1); test: TLR7 inhibition reporter assay (HEK-Blue cells, SEAP reporter, gardiquimod stimulation); assay type: cell-based; details: HEK-Blue cells overexpressing human TLR7, gardiquimod 7.5 μM
T2 construct: host or cells: HEK-Blue cells
T2 sequence (Q9NYK1 27-1049): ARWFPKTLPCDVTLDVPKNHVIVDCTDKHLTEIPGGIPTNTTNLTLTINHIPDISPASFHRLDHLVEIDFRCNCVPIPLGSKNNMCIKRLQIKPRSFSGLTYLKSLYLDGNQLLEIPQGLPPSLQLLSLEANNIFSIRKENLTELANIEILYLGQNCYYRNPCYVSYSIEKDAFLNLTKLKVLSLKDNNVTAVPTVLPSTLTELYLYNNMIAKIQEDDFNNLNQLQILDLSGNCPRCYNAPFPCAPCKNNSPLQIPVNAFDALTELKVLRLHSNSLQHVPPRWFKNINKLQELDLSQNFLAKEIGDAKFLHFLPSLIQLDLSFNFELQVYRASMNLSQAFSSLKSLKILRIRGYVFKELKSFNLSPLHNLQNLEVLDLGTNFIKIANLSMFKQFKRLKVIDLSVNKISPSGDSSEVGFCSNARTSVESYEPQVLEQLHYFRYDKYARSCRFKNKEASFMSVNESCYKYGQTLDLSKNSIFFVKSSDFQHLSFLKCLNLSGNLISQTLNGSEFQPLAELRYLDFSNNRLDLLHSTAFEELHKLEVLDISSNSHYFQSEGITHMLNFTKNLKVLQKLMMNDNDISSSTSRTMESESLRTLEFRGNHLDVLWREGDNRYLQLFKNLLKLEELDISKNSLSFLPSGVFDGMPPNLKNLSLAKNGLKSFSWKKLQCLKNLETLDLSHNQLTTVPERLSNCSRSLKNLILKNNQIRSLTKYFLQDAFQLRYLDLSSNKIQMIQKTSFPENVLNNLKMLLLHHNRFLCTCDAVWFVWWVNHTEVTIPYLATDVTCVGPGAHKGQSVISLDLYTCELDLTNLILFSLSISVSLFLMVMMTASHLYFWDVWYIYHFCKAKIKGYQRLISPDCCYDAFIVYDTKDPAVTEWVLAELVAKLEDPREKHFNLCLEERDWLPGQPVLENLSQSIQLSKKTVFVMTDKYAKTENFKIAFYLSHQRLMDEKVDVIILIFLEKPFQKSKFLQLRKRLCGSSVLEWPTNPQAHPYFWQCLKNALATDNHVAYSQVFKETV
How it was run: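 In this cell reporter format, test compounds at 0.05 nM-50 μM final incubate 22 h with seeded cells (TLR7 15000, TLR8 20,000 per well). SEAP read-out by HEK-Blue Detection medium yields % inhibition relative to agonist/DMSO and known-inhibitor wells.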

Row | IC50 [1] [nM] | IC50 [2] [nM] | Structure (SMILES)
1 | 2350 | 1010 | COc1ccc(-c2[nH]c3ccc(C4CCN(C(=O)CN5CCN(C)CC5)CC4)cc3c2C)cc1OC [Example 409, 1-(4-(2-(3,4-dimethoxyphenyl)-3-methyl-1H-indol-5-yl)piperidin-1-yl)-2-(4-methylpiperazin-1-yl)ethan-1-one]
2 | 3890 | 1180 | COc1ccc(-c2[nH]c3ccc(C4CCN(C(=O)CNCCC(C)O)CC4)cc3c2C)cc1OC (stereo not shown) [Example 406, 1-(4-(2-(3,4-dimethoxyphenyl)-3-methyl-1H-indol-5-yl)piperidin-1-yl)-2-((3-hydroxybutyl)amino)ethan-1-one]
3 | 192 | 490 | COc1ccc(-c2[nH]c3ccc(C4CCN(C5CCN(C6CCC(O)CC6)CC5)CC4)cc3c2C)cc1OC (stereo not shown) [Example 84, 4-(4-(2-(3,4-dimethoxyphenyl)-3-methyl-1H-indol-5-yl)-[1,4′-bipiperidin]-1′-yl)cyclohexan-1-ol]
4 | 247 | 19 | COc1ccc(-c2[nH]c3ccc(C4CCN(C5CCN(C(C)C)CC5)CC4)cc3c2CC(F)(F)F)cc1OC [Example 412, 2-(3,4-dimethoxyphenyl)-5-(1′-isopropyl-[1,4′-bipiperidin]-4-yl)-3-(2,2,2-trifluoroethyl)-1H-indole]
5 | 180 | 477 | COc1ccc(-c2[nH]c3ccc(C4CCN(C5CCN(Cc6cncn6C)CC5)CC4)cc3c2C)cc1OC [Example 59, 2-(3,4-dimethoxyphenyl)-3-methyl-5-(1′-((1-methyl-1H-imidazol-5-yl)methyl)-[1,4′-bipiperidin]-4-yl)-1H-indole]
6 | 2000 | 898 | COc1ccc(-c2[nH]c3ccc(C4CCN(C(=O)CN(C)CCO)CC4)cc3c2C)cc1OC [Example 408, 1-(4-(2-(3,4-dimethoxyphenyl)-3-methyl-1H-indol-5-yl)piperidin-1-yl)-2-((2-hydroxyethyl)(methyl)amino)ethan-1-one]
7 | 130 | 223 | COc1ccc(-c2[nH]c3ccc(C4CCN(C5CCN(Cc6cccn6C)CC5)CC4)cc3c2C)cc1OC [Example 78, 2-(3,4-dimethoxyphenyl)-3-methyl-5-(1′-((1-methyl-1H-pyrrol-2-yl)methyl)-[1,4′-bipiperidin]-4-yl)-1H-indole]
8 | 356 | 563 | COc1ccc(-c2[nH]c3ccc(C4CCN(C5CCN(Cc6nccs6)CC5)CC4)cc3c2C)cc1OC [Example 72, 2-((4-(2-(3,4-dimethoxyphenyl)-3-methyl-1H-indol-5-yl)-[1,4′-bipiperidin]-1′-yl)methyl)thiazole]
9 | 2950 | 31 | COc1ccc(-c2[nH]c3ccc(C4CCN(C(=O)CN5CCCC(C(=O)N(C)C)C5)CC4)cc3c2CC(F)(F)F)cc1OC (stereo not shown) [Example 419, 1-(2-(4-(2-(3,4-dimethoxyphenyl)-3-(2,2,2-trifluoroethyl)-1H-indol-5-yl)piperidin-1-yl)-2-oxoethyl)-N,N-dimethylpiperidine-3-carboxamide]
10 | 86 | 266 | COc1ccc(-c2[nH]c3ccc(C4CCN(C5CCN(CC6CCCCC6)CC5)CC4)cc3c2C)cc1OC [Example 58, 5-(1′-(cyclohexylmethyl)-[1,4′-bipiperidin]-4-yl)-2-(3,4-dimethoxyphenyl)-3-methyl-1H-indole]
11 | 1170 | 58 | CNCC(=O)N1CCC(c2ccc3[nH]c(-c4ccc(OC)c(OC)c4)c(CC(F)(F)F)c3c2)CC1 [Example 414, 1-(4-(2-(3,4-dimethoxyphenyl)-3-(2,2,2-trifluoroethyl)-1H-indol-5-yl)piperidin-1-yl)-2-(methylamino)ethanone]
12 | 115 | 819 | COc1ccc(-c2[nH]c3ccc(C4CCN(C5CCCN(CC(C)C)CC5)CC4)cc3c2C)cc1OC (stereo not shown) [Example 95, 2-(3,4-dimethoxyphenyl)-5-(1-(1-isobutylazepan-4-yl)piperidin-4-yl)-3-methyl-1H-indole]
13 | 196 | 225 | COc1ccc(-c2[nH]c3ccc(C4CCN(C5CCN(C6CCCC6)CC5)CC4)cc3c2C)cc1OC [Example 62, 5-(1′-cyclopentyl-[1,4′-bipiperidin]-4-yl)-2-(3,4-dimethoxyphenyl)-3-methyl-1H-indole]
14 | 169 | 734 | COc1ccc(-c2[nH]c3ccc(C4CCN(C5CCN(CC(C)(C)C)CC5)CC4)cc3c2C)cc1OC [Example 75, 2-(3,4-dimethoxyphenyl)-3-methyl-5-(1′-neopentyl-[1,4′-bipiperidin]-4-yl)-1H-indole]
15 | 237 | 903 | COc1ccc(-c2[nH]c3ccc(C4CCN(C5CCCN(C6CCCC6)CC5)CC4)cc3c2C)cc1OC (stereo not shown) [Example 93, 5-(1-(1-cyclopentylazepan-4-yl)piperidin-4-yl)-2-(3,4-dimethoxyphenyl)-3-methyl-1H-indole]
16 | 3890 | 63 | C#CCCCCC(=O)NCCN1CCC(c2ccc3[nH]c(-c4ccc(OC)c(OC)c4)c(C(C)C)c3c2)CC1 [Example 411, N-(2-(4-(2-(3,4-dimethoxyphenyl)-3-isopropyl-1H-indol-5-yl)piperidin-1-yl)ethyl)hept-6-ynamide]
17 | 626 | 83 | CNCCN1CCC(c2ccc3[nH]c(-c4ccc(OC)c(OC)c4)c(CC(F)(F)F)c3c2)CC1 [Example 413, 2-(4-(2-(3,4-dimethoxyphenyl)-3-(2,2,2-trifluoroethyl)-1H-indol-5-yl)piperidin-1-yl)-N-methylethanamine]
18 | 279 | 66 | CCN(CC)C(=O)C1CCCN(CC(=O)N2CCC(c3ccc4[nH]c(-c5ccc(OC)c(OC)c5)c(CC(F)(F)F)c4c3)CC2)C1 (stereo not shown) [Example 420, 1-(2-(4-(2-(3,4-dimethoxyphenyl)-3-(2,2,2-trifluoroethyl)-1H-indol-5-yl)piperidin-1-yl)-2-oxoethyl)-N,N-diethylpiperidine-3-carboxamide]
19 | 80 | 433 | COc1ccc(-c2[nH]c3ccc(C4CCN(C5CCN(C6CCC(C)CC6)CC5)CC4)cc3c2C)cc1OC (stereo not shown) [Example 80, 2-(3,4-dimethoxyphenyl)-3-methyl-5-(1′-(4-methylcyclohexyl)-[1,4′-bipiperidin]-4-yl)-1H-indole]
20 | 117 | 339 | COc1ccc(-c2[nH]c3ccc(C4CCN(C5CCN(CC6CC6)CC5)CC4)cc3c2C)cc1OC [Example 3, 5-(1′-(cyclopropylmethyl)-[1,4′-bipiperidin]-4-yl)-2-(3,4-dimethoxyphenyl)-3-methyl-1H-indole]
